Data reported in patent publication US20010025105A1, “Certain substituted 1-aryl-3-piperazine-1'-yl propanones” (Molecular Geriatarics Corporation, priority 1997, published 2001).
pIC50: −log10 of the molar value. Where a name gives a salt, the structure may show the parent alone.

Tested on: not given
Experiment: not given
Settings: not given

melting point | Compound
> 250 °C (dec.) | Cl.Cl.O=C1c2ccccc2SCC1CN1CCN(Cc2ccccc2)CC1 (centres unmarked)
224 °C (dec.) | O=C(CCN1CCN(Cc2ccccc2)CC1)c1ccc(I)cc1 (as salt: hydrochloride) [Example 1, 1-(piodophenyl)-3-(4′-benzyl-1′-piperazinyl)-1-propanonedihydrochloride]
255 °C | O=C(CCN1CCN(Cc2ccccc2)CC1)c1cc(C(F)(F)F)cc(C(F)(F)F)c1 (as salt: hydrochloride) [Example 9, 1-[3″,5″-Bis-(trifluoromethyl)phenyl]-3-(4′-benzyl-1′-piperazinyl)-1-propanone dihydrochloride]
200 °C (dec.) | O=C(CCN1CCN(Cc2ccccc2)CC1)c1ccc2c(c1)CCCC2 (as salt: hydrochloride) [Example 20, 1-(1″,2″,3″,4″-Tetrahydronaphth-6″-yl)-3-(4′-benzyl-1′-piperazinyl)-1-propanone dihydrochloride]
225 °C (dec.) | O=C(CCN1CCN(Cc2ccccc2)CC1)c1ccc(-c2ccccc2)cc1 (as salt: hydrochloride) [Example 22, 1-p-Biphenyl-3-(4′-benzyl-1′-piperazinyl)-1-propanone dihydrochloride]
221 °C (dec.) | Cn1cc(C(=O)CCN2CCN(Cc3ccccc3)CC2)cn1 (as salt: hydrochloride) [Example 24, 1-(1″-Methyl-1″-H-pyrazol-4″-yl)-3-(4′-benzyl-1′-piperazinyl)-1-propanone dihydrochloride]

Compound | melting point
O=C(CCN1CCN(Cc2ccccc2)CC1)c1cc2ccccc2o1 (as salt: hydrochloride) [Example 10, 1-(Benzofur-2″-yl)-3-(4′-benzyl-1′-piperazinyl)-1-propanone dihydrochloride] | 255 to 257 °C
O=C(CCN1CCN(Cc2ccccc2)CC1)c1ccc2c(c1)OCCO2 (as salt: hydrochloride) [Example 19, 1-(2″,3″-Dihydro-1″,4″-benzodioxan-6″-yl)-3-(4′-benzyl-1′-piperazinyl)-1-propanone dihydrochloride] | 215 °C (dec.)

Tested on: TG3 immunoreactivity in OKA treated MSN1a cells
Experiment: MSN1a cell culture model, ELISA with TG3 antibody, okadaic acid treated cells
Type: cell-based, human
Settings: 1 μM OKA, 2 hrs at 37° C., read-out: IC50 for inhibition of TG3 immunoreactivity in OKA treated MSN1a cells
Procedure: This assay can thus be used to determine whether a drug is capable of preventing or intervening in AD by attenuating the production of abnormally phosphorylated paired helical filament epitopes associated with AD. To determine whether a drug is capable of preventing or intervening in AD activity, the MSN1a cells containing tau and associated proteins are treated with OKA capable of greatly increasing immunoreactivity of the MSN1a cells with AD specific monoclonal antibodies. Then, either prior to or concomitantly with OKA treatment, a compound of the present invention is added to the culture. If the compound prevents the induction of the AD epitopes in the MSN1a cells treated with OKA, then it is said to have anti-AD activity. If the AD-specific antibodies are highly reactive with the neuroblastoma cells following OKA treatment in the presence of compound, then the compound is said to be ineffectual against AD.
The MSN1a human neuroblastoma line was subcloned from a population of MSN cells obtained from the laboratory of Dr. Peter Davies (Albert Einstein College of Medicine, New York, N.Y.). Cells were grown and maintained in flasks in RPMI 1640 medium, supplemented with 15% fetal calf serum, 100 U/ml penicillin, 100 U/ml Streptomycin, 0.5 ug/ml fungizone under 7.5% CO2 at 37° C.
Stock solutions of drugs were prepared by dissolving the anhydrous powders to final concentrations of either 10 or 20 mM in 50% aqueous or 100% dimethyl sulfoxide (DMSO), respectively. Working solutions of drugs were prepared by dilution of the stock solutions with Kreb's Ringer in Hepes buffer (KRH) (128 mM NaCl, 5 mM KCl, 2.5 mM CaCl2 1.2 mM MgSO4, 1 mM Na2HPO4, 10 mM dextrose, 20 mM Hepes, pH 7.4). OKA is maintained as a 1 mM stock solution in DMSO prior to dilution to 4 μM in KRH.
MSN cells grown in 225 cm^2 flasks are removed from the incubator, their medium decanted and replaced with 50 ml pre-warmed KRH. The cells are harvested by scraping prior to sedimentation at 1000 rpm for 5 min. The supernatants are discarded and the cell pellets are resuspended, the cells counted and diluted to a density of 2×10^4 cells/[…]. The cells are then plated in a 96 well plate at 50 μl/well and 25 μl of 4 μM OKA and 25 μl of drug are then added to the appropriate wells; the entire 96 well plate is then incubated for 2 hrs at 37° C. Depending on the dilution of drug added, this yields individual wells containing 1 μM OKA, 0-64 μM drug and 2×10^4 cells in 0.26% DMSO in KRH. The incubation is terminated by the addition of 20 μl of 6X extraction buffer and immediate freezing at −80° C. for at least one hr. The 6X extraction buffer contains: 25 mM Tris-HCl, pH 7.6, 150 mM NaCl, 5 mM EDTA, 24 mM β-glycerol phosphate, 10 μg/ml APMSF (4-amidinophenylmethane-sulfonyl flouride), and 2.5 μg/ml each of leupeptin, aprotinin, and pepstatin. The plates are thawed in a 37° C. water bath and 20 μl of cell lysate is added to a replica well in an ELISA plate that already contains 80 μl of coating buffer (15 mM Na2CO3 and 35 mM NaHCO3, pH 9.6). The plates are allowed to coat overnight at 4° C. The plates are washed four times with deionized water and then blocked for 30 min at 37° C. with 200 μl/well pre-warmed 1% bovine serum albumin in 10 mM Tris-HCl, pH 7.4, 150 mM NaCl, 3 mM NaN3 (BSA-TBS). After the blocking solution is removed, 100 μl/well of an appropriate dilution of pre-warmed primary antibody (eg., TG3 or PHF-1) in BSA-TBS is added and incubated at 37° C. for 30 min. Incubation is terninated by washing four times in deionized water at which time 100 μl of an appropriate dilution of pre-warmed secondary antibody (conjugated to alkaline phosphatase) in BSA-TBS is added to each well in the ELISA plate. Incubation is performed for 30 min at 37° C. followed by washing 4 times with deionized water. […] of prewarmed chromogenic substrate (1 mg/mnl p-nitrophenyl phosphate in 10% diethanolamine, 3 mM NaN3, 0.5 mM MgCl2, pH 9.8) is added and the plate incubated for 30 min at 37° C. […]

Compound | pIC50
1-(1-Nitrophenyl)-3-[4′-(2″,3″-difluorobenzoyl)-1′-piperazinyl]-1-propanone dihydrochloride [Example 63] | 5.14
1-(-Methylthiophenyl)-3-(4′-benzyl-1′-piperazinyl)-1-propanonedihydrochloride [Example 14] | 5.24
Cl.Cl.O=C(CCN1CCN(Cc2ccccc2)CC1)c1ccc([N+](=O)[O-])cc1 [Example 5, 1-p-Nitrophenyl)-3-(4′-benzyl-1′-piperaziny)-1-propanone dihydrochloride] | 5.30
O=C(CCN1CCN(Cc2ccccc2)CC1)c1cccc([N+](=O)[O-])c1 [Example 11, 1-(m-Nitrophenyl)-3-(4′-benzyl-1′-piperazinyl)-1-propanone dihydrochloride] | 5.38
O=C(CCN1CCN(Cc2ccccc2)CC1)c1ccccc1F [Example 13, 1-(o-Fluorophenyl)-3-(4′-benzyl-1′-piperazinyl)-1-propanone dihydrochloride] | 4.96
O=C(CCN1CCN(Cc2ccccc2)CC1)c1ccc(Br)cc1 [Example 16, 1-(p-Bromophenyl)-3-(4′-benzyl-1′-piperazinyl)-1-propanone dihydrochloride] | 5.28
O=C(CCN1CCN(Cc2ccccc2F)CC1)c1ccc(I)cc1 [Example 29, 1-(p-Iodophenyl)-3-[4′-(o-fluorobenzyl)-1′-piperazinyl]-1-propanone dihydrochloride] | 5.06
O=C(CCN1CCN(Cc2ccccc2F)CC1)c1ccc([N+](=O)[O-])cc1 [Example 32, 1-(p-Nitrophenyl)-3-[4′-(o-fluorobenzyl)-1′-piperazinyl]-1-propanone dihydrochloride] | 5.21
CS(=O)(=O)Nc1ccc(C(=O)CCN2CCN(Cc3cc(F)ccc3F)CC2)cc1 [Example 36, 1-p-Methanesulfonamidophenyl)-3-(2″,5″-difluorobenzyl-1′-piperazinyl)-1-propanone dihydrochloride] | 4.60
O=C(CCN1CCN(C(=O)c2ccccc2C(F)(F)F)CC1)c1ccc([N+](=O)[O-])cc1 [Example 39] | 5.00
O=C(CCN1CCN(Cc2cccc(F)c2)CC1)c1ccc([N+](=O)[O-])cc1 [Example 42, 1-(p-Nitrophenyl)-3-[4′-(m-fluorobenzyl)-1′-piperazinyl]-1-propanonedihydrochloride] | 5.24
O=C(CCN1CCN(Cc2ccc(F)cc2)CC1)c1ccccc1F [Example 44, 1-(o-Fluorophenyl)-3-[4′-(p-fluorobenzyl)-1′-piperazinyl]-1-propanone dihydrochloride] | 5.12
O=C(CCN1CCN(Cc2ccc(F)c(F)c2)CC1)c1ccc([N+](=O)[O-])cc1 [Example 55, 1-(p-Nitrophenyl)-3-[4′-(3″,4″-difluorobenzyl)-1′-piperazinyl]-1-propanone dihydrochloride] | 5.20
O=C(CCN1CCN(Cc2ccccc2)CC1)c1ccc(Br)s1 [Example 57, 1-(5″-Bromo-2″-thieny)-3-(4′-benzy-1′-piperazinyl)-1-propanone dihydrochloride] | 5.17
O=C(CCN1CCN(Cc2ccccc2)CC1)c1ccccc1I [Example 81, 1-o-Iodophenyl-3-(4′-benzyl-1′-piperazinyl)-1-propanone dihydrochloride] | 5.35

Same assay, conditions: Homo sapiens, 1 μM OKA, 2 hrs at 37° C., read-out: IC50 for inhibition of TG3 immunoreactivity in OKA treated MSN1a cells

Compound | pIC50
O=C(CCN1CCN(Cc2ccccc2)CC1)c1ccc2c(c1)OCCO2 [Example 19, 1-(2″,3″-Dihydro-1″,4″-benzodioxan-6″-yl)-3-(4′-benzyl-1′-piperazinyl)-1-propanone dihydrochloride] | 4.81
CS(=O)(=O)Nc1ccc(C(=O)CCN2CCN(Cc3ccccc3)CC2)cc1 [Example 26, 1-[-p-(Methanesulfonamido)phenyl]-3-(4′-benzyl-1′-piperazinyl)-1-propanone dihydrochloride] | 4.83
Cc1ccc(C(=O)CCN2CCN(Cc3ccccc3)CC2)o1 [Example 67, 1-(5″-Methyl-2″-furanyl)-3-(4′-benzyl-1′-piperazinyl)-1-propanone hydrochloride] | 4.70
O=C(CCN1CCN(Cc2ccccc2)CC1)c1ccc(Sc2ccccc2)cc1 [Example 69, 1-p-Phenylthiophenyl-3-(4′-benzyl-1′-piperazinyl)-3-propanone dihydrochlonde] | 4.82
O=C(CCN1CCN(Cc2ccccc2)CC1)c1cccn1S(=O)(=O)c1ccccc1 [Example 91, 1-(N-Phenylsulfonylpyrrol-2-yl)-3-(4′-benzyl-1′-piperazinyl)-1-propanone dihydrochloride] | 5.02
O=C(CCN1CCC(C(=O)c2ccc(F)cc2)CC1)c1csc([N+](=O)[O-])c1 [Example 98, 1-(2″-Nitro-4″-thienyl)-3-(4′-p-fluorobenzoyl-1′-piperidinyl)-1-propanone hydrochloride] | 4.47
